Bridge positions count the residues as written; N and C are the ends. Peptide text beside a SMILES is read from it.
What was measured:
Format in all cases: cell-based
hNaV1.2 = target: T1, hNaV1.2 (Homo sapiens, UniProt Q99250); assay: Automated whole-cell patch-clamp (QPatch 16X), hNaV1.2; settings: for IC50: HEK293 cells expressing hNaV1.2 + β1 subunit, QPatch 16X, holding −80 mV, step to 0 mV, peptide incubated 2 min, 0.1% BSA, mean, SEM and n (2-7)
T1 construct: host or cells: HEK293
Method: (§1) Human embryonic kidney 293 (HEK293) cells stably expressing recombinant hNaV1.2, hNaV1.3 and hNaV1.7 and the β1 auxiliary subunit (Scottish Biomedical Drug Discovery, Glasgow, UK) were cultured in Minimal Essential medium (MEM) (Sigma-Aldrich, MO, United States) supplemented with 10% v/v FBS-New Zealand origin (Assay Matrix), 2 mM L-glutamine and selection antibiotics as per manufacturer’s recommendation. The HEK293 cells heterologously expressing mNaV1.7 and F813G-mNaV1.7 were generously provided by Prof Irina Vetter and were cultured in Minimal Essential medium (MEM) (Sigma-Aldrich, MO, United States) supplemented with 10% v/v FBS-New Zealand origin (Assay Matrix), 2 mM L-glutamine and hygromycin 100 μg/mL.
(§2) NaV channel currents from HEK293 cells stably expressing NaV subtypes and the β1 auxiliary subunit were recorded using an automated whole-cell patch clamp system QPatch 16X (Sophion Bioscience A/S, Ballerup, Denmark). As per the manufacturer’s guidelines, the cells were cultured for 48 h to achieve ∼80% confluency, detached using Detachin (Genlantis) and resuspended to 5 × 10^6 cells/mL in serum free media [CHO-cell SFM (Life Technologies), 25 mM HEPES and 100 U/mL penicillin/streptomycin]. The extracellular solution comprised (in mM) 1 CaCl2, 1 MgCl2, 5 HEPES, 3 KCl, 140 NaCl and 20 TEA-Cl, with the pH adjusted to 7.3 with NaOH. The intracellular solution comprised (in mM) 140 CsF, 1 EGTA, 5 CsOH, 10 HEPES and 10 NaCl, with the pH adjusted to 7.3 with CsOH. The osmolarity of both solutions were adjusted to 320 mOsm with sucrose. Compounds were prepared in extracellular solution containing 0.1% bovine serum albumin (Sigma-Aldrich). To obtain the dose-response curves, cells were maintained at a holding potential −80 mV and Na^+ currents were elicited by […] voltage steps to 0 mV from a −120 mV conditioning pulse applied for […]. Increasing concentrations of the peptide were incubated with the cells at the holding potential for 2 min before the voltage protocol was applied.
(§3) The experimental data were analysed using QPatch Assay software v5.6.4 and GraphPad Prism 7.0 using a four-parameter Hill equation [Y = Bottom + (Top—Bottom)/(1 + 10^(Log IC50—X)* Hillslope)] to fit concentration response curves by non-linear regression analysis and Student’s t-test. Data are presented as means ± standard error of mean (SEM) with number of independent experiments stated and p < 0.05 is considered statistically significant. Statistically insignificant shift in the activity is denoted by “little” while small but statistically significant shift in the activity is denoted by “slight” throughout the manuscript.

hNaV1.3 = target: T2, hNaV1.3 (Homo sapiens, UniProt Q9NY46); assay: Automated whole-cell patch-clamp (QPatch 16X), hNaV1.3; settings: HEK293 cells expressing hNaV1.3 + β1 subunit; QPatch 16X; holding −80 mV, step to 0 mV; peptide incubated 2 min; 0.1% BSA; mean, SEM and n (3-12)
T2 construct: host or cells: HEK293
Method: as §1, §2, §3

hNaV1.7 = target: T3, hNaV1.7 (Homo sapiens, UniProt Q15858); assay: Automated whole-cell patch-clamp (QPatch 16X), hNaV1.7; settings: for IC50: HEK293 cells expressing hNaV1.7 + β1 subunit, QPatch 16X, holding −80 mV, step to 0 mV, peptide incubated 2 min, 0.1% BSA, mean, SEM and n (3-9)
T3 construct: host or cells: HEK293
Method: as §1, §2, §3

T2 sequence (Q9NY46 whole entry): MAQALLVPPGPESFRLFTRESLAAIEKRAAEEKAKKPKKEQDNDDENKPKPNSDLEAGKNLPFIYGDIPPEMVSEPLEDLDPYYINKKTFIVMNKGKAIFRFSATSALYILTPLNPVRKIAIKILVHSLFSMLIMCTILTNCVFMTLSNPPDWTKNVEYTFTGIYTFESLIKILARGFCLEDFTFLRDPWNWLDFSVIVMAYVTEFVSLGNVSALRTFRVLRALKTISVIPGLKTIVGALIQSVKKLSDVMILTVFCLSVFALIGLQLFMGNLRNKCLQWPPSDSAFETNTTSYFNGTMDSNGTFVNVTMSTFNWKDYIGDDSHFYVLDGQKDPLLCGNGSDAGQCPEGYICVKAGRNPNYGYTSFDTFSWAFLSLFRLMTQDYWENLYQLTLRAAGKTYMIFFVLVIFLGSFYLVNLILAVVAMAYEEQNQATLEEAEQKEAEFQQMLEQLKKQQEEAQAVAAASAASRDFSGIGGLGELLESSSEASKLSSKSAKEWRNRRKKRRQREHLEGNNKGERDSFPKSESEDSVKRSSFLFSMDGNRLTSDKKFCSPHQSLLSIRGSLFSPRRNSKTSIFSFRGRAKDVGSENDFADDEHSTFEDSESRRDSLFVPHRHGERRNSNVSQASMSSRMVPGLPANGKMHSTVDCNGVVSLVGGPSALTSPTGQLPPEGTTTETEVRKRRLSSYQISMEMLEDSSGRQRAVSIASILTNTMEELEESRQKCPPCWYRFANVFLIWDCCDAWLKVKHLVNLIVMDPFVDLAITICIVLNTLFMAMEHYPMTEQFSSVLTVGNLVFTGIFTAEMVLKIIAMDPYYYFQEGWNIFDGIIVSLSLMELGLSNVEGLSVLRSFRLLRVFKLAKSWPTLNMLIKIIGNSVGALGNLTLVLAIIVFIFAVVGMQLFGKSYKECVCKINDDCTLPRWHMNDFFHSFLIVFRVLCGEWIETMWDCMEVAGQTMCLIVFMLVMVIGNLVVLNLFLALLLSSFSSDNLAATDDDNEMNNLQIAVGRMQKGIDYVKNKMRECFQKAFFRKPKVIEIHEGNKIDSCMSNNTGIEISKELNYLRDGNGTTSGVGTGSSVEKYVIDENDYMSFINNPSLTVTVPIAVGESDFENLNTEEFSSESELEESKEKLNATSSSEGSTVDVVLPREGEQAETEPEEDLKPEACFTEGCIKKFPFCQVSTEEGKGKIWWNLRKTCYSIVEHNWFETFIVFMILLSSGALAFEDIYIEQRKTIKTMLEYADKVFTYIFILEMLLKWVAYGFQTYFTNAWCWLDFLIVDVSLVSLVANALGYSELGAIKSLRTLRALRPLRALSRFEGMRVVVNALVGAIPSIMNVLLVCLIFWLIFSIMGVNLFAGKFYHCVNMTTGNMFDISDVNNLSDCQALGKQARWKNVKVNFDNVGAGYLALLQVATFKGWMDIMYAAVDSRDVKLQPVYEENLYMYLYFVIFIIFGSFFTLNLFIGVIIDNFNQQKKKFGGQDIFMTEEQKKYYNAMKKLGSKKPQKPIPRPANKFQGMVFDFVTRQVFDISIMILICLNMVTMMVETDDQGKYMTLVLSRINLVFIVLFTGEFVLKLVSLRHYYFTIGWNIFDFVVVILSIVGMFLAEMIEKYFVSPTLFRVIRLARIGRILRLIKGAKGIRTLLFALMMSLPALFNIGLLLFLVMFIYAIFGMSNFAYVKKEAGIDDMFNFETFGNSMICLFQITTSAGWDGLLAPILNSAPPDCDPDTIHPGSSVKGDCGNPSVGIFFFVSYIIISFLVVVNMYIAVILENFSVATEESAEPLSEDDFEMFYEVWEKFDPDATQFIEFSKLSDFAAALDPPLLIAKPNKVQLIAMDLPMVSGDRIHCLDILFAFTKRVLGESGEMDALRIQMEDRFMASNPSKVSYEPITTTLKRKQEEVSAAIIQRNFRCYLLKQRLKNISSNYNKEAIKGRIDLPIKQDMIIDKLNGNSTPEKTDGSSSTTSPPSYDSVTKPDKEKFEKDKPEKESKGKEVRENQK
T2 sequence (Q07699 19-218, further chain): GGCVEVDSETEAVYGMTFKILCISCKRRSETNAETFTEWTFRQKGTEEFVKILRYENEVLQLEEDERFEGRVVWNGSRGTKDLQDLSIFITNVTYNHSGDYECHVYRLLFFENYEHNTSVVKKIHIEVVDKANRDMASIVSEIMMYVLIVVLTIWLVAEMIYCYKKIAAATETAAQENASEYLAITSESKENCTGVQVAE
T3 sequence (Q15858 whole entry): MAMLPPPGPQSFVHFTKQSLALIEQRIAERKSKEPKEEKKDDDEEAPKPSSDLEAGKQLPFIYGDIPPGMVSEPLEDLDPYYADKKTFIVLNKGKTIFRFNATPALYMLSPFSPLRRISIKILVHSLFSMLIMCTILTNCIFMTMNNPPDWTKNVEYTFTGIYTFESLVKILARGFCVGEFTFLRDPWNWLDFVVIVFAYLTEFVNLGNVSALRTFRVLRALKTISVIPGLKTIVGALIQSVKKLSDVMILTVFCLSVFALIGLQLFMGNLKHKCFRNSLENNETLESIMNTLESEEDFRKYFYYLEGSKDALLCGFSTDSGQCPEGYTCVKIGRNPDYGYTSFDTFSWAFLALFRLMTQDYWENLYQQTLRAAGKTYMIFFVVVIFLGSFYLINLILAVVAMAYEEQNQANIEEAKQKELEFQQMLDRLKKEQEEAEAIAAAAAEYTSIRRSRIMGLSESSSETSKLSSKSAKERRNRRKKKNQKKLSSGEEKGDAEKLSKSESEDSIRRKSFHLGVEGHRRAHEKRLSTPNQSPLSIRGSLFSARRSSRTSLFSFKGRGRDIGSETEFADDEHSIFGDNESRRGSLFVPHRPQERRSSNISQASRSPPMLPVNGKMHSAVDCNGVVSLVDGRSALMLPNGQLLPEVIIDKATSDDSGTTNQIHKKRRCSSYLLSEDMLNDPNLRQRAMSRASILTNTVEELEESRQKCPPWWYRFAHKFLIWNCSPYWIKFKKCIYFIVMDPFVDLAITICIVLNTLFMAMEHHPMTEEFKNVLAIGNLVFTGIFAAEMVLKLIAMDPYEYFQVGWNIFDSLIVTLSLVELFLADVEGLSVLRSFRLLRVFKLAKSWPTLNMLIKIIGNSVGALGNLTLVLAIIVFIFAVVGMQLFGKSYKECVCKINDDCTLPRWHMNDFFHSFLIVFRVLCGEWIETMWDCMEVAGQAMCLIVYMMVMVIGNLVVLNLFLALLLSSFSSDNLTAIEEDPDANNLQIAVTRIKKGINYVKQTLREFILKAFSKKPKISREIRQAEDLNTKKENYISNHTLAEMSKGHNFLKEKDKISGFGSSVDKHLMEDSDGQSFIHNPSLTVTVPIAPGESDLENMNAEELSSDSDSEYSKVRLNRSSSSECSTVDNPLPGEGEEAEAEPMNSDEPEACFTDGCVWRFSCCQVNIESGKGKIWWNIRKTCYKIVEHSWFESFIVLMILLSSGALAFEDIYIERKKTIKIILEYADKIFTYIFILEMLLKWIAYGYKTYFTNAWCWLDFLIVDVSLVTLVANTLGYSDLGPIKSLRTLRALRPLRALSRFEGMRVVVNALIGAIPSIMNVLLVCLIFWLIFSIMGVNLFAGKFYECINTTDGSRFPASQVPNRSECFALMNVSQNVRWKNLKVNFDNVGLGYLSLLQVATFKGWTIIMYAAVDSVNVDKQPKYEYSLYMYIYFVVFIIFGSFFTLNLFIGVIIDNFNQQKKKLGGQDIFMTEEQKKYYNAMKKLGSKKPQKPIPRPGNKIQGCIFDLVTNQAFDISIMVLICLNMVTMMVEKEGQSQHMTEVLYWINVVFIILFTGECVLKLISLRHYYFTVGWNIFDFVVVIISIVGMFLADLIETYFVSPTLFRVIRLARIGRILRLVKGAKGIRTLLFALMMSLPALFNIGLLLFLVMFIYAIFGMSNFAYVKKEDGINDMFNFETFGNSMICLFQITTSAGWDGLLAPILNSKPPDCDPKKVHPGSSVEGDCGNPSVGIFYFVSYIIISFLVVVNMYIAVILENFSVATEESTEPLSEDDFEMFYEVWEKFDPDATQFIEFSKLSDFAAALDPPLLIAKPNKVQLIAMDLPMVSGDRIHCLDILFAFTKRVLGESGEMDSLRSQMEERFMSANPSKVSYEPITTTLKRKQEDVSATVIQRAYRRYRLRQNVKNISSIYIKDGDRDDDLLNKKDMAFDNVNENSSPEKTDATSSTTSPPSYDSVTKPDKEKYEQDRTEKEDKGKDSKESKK
T3 sequence (Q07699 19-218, further chain): as the sequence (Q07699 19-218, further chain) above

Structure (SMILES)	IC50 (hNaV1.2) [µM]	IC50 (hNaV1.3) [µM]	IC50 (hNaV1.7) [µM]	Loss (reduction) in potency vs rSsp1a at hNaV1.2 (hNaV1.2; relative to wild type rSsp1a) [fold]	Loss (reduction) in potency vs rSsp1a at hNaV1.7 (hNaV1.7; relative to wild type rSsp1a) [fold]	hNaV1.2-selectivity against hNaV1.3 (hNaV1.2; ratio of potencies hNaV1.3 / hNaV1.2) [fold]
CC(C)C[C@H](NC(=O)[C@H](CC(=O)O)NC(=O)[C@H](Cc1ccc(O)cc1)NC(=O)[C@H](CCCNC(=N)N)NC(=O)[C@@H]1CSSC[C@@H]2NC(=O)[C@H](CCCCN)NC(=O)[C@H](CC(N)=O)NC(=O)[C@H](CC(N)=O)NC(=O)[C@H](CC(N)=O)NC(=O)[C@@H]3CCCN3C(=O)[C@H](CC(=O)O)NC(=O)[C@@H]3CSSC[C@H](NC(=O)[C@H](C(C)C)NC(=O)[C@H](Cc4ccc(O)cc4)NC(=O)CNC(=O)[C@H](CCC(=O)O)NC(=O)[C@H](CSSC[C@H](NC(=O)[C@H](CC(=O)O)NC(=O)CN)C(=O)N[C@@H](CC(C)C)C(=O)NCC(=O)N[C@@H](Cc4c[nH]c5ccccc45)C(=O)N[C@@H](Cc4ccccc4)C(=O)N[C@@H](CCCNC(=N)N)C(=O)NCC(=O)N3)NC2=O)C(=O)N[C@@H](Cc2c[nH]cn2)C(=O)N[C@@H](Cc2c[nH]c3ccccc23)C(=O)N[C@@H](CCCCN)C(=O)N[C@@H](Cc2ccc(O)cc2)C(=O)N2CCC[C@H]2C(=O)N[C@@H](Cc2c[nH]c3ccccc23)C(=O)N1)C(=O)O [S7R]	0.153	0.333	0.094			
CC(C)C[C@H](NC(=O)[C@H](CC(=O)O)NC(=O)[C@H](Cc1ccc(O)cc1)NC(=O)[C@H](CCCNC(=N)N)NC(=O)[C@@H]1CSSC[C@@H]2NC(=O)[C@H](CCCCN)NC(=O)[C@H](CC(N)=O)NC(=O)[C@H](CC(N)=O)NC(=O)[C@H](CC(N)=O)NC(=O)[C@@H]3CCCN3C(=O)[C@H](CC(=O)O)NC(=O)[C@@H]3CSSC[C@H](NC(=O)[C@H](C(C)C)NC(=O)[C@H](Cc4ccc(O)cc4)NC(=O)CNC(=O)[C@H](CCC(=O)O)NC(=O)[C@H](CSSC[C@H](NC(=O)[C@H](CC(=O)O)NC(=O)CN)C(=O)N[C@@H](CC(C)C)C(=O)NCC(=O)N[C@@H](Cc4c[nH]c5ccccc45)C(=O)N[C@@H](Cc4ccccc4)C(=O)N[C@@H](CO)C(=O)NCC(=O)N3)NC2=O)C(=O)N[C@@H](Cc2c[nH]cn2)C(=O)N[C@@H](Cc2c[nH]c3ccccc23)C(=O)N[C@@H](C)C(=O)N[C@@H](Cc2ccc(O)cc2)C(=O)N2CCC[C@H]2C(=O)N[C@@H](Cc2c[nH]c3ccccc23)C(=O)N1)C(=O)O [K25A] (H-GDCLGWFSGCDPNNNKCCEGYVCHWAYPWCRYDL-OH; disulfide 3-18, 10-23, 17-30 (inferred); N-terminus and C-terminus assumed)	> 1	> 1	> 1	≥ 10	≥ 10	
CC(C)C[C@H](NC(=O)[C@H](Cc1ccc(O)cc1)NC(=O)[C@H](Cc1ccc(O)cc1)NC(=O)[C@H](CCCNC(=N)N)NC(=O)[C@@H]1CSSC[C@@H]2NC(=O)[C@H](CCCCN)NC(=O)[C@H](CC(N)=O)NC(=O)[C@H](CC(N)=O)NC(=O)[C@H](CC(N)=O)NC(=O)[C@@H]3CCCN3C(=O)[C@H](CC(=O)O)NC(=O)[C@@H]3CSSC[C@H](NC(=O)[C@H](C(C)C)NC(=O)[C@H](Cc4ccc(O)cc4)NC(=O)CNC(=O)[C@H](CCC(=O)O)NC(=O)[C@H](CSSC[C@H](NC(=O)[C@H](CC(=O)O)NC(=O)CN)C(=O)N[C@@H](CC(C)C)C(=O)NCC(=O)N[C@@H](Cc4c[nH]c5ccccc45)C(=O)N[C@@H](Cc4ccccc4)C(=O)N[C@@H](CO)C(=O)NCC(=O)N3)NC2=O)C(=O)N[C@@H](Cc2c[nH]cn2)C(=O)N[C@@H](Cc2c[nH]c3ccccc23)C(=O)N[C@@H](CCCCN)C(=O)N[C@@H](Cc2ccc(O)cc2)C(=O)N2CCC[C@H]2C(=O)N[C@@H](Cc2c[nH]c3ccccc23)C(=O)N1)C(=O)O [D32Y]	0.075	0.417	0.11			~6
